The test system of one experiment is Molm-13. Nature of the experiment: Cell proliferation inhibition in AML cell line Molm-13 (Alamar Blue). In kind it is cell-based. Particulars: Homo sapiens, Molm-13, 72 hours, read-out: Cell proliferation inhibitory activity (GI50) Molm-13. An excerpt: (§1) Cell proliferation inhibition experiments on acute myeloid leukemia (AML) cell lines tested FLT3 inhibitory activity using MV4-11, Molm-13, and Molm-14 cells, which are FLT3-ITD-expressed AML cell lines. The origin of all cell lines is human-derived cell lines, and the place of purchase and culture conditions of each cell line are as follows.
(§2) MV4-11 cells were purchased form the American Type Culture Collection (ATCC, Rockville, MD, USA, cat #CRL-9591), Molm-13 (DSMZ, cat #ACC554), Molm-14 (DSMZ, cat #ACC777), and then cultured in RPMI 1640 medium (Corning Co. 10-040-CV) supplemented with 10% fetal bovine serum, 1% penicillin/streptomycin and 4 mM L-glutamine (Life Technology, GrandIsland, NY).
(§3) Cell viability was evaluated by Resazurin redox-based analysis method with Alamar Blue Assay Kit (Invitrogen, USA). Specifically, for MV4-11, Molm-13 and Molm-14 cells, 8000 cells were plated on 384-well plates in 45 μl of medium. Compounds were treated with dimethyl sulfoxide (DMSO) as a negative control group. After 3 days (72 hours) of compound addition, 5 μl of Alamar Blue kit reagent was added to each well of 384-well plate and incubated at 37° C. for 2 hours in a humidified CO2 incubator. After incubation, fluorescence density (Flu) was measured at a wavelength of 544 nm and 590 nm using SpectraMax iD3 Multi Mode Microplate Reader (Molecular Devices, ID3-STD). GI50 was calculated by nonlinear regression using Prism version 5.01 (GraphPad, LaJolla, CA, USA).
On the technique in general: Resazurin is reduced to fluorescent resorufin, in cell work by metabolically active cells.

For another experiment, the system named is Molm-14. Description: Cell proliferation inhibition in AML cell line Molm-14 (Alamar Blue). In kind it is cell-based. The note with it: Homo sapiens, Molm-14, 72 hours, read-out: Cell proliferation inhibitory activity (GI50) Molm-14.
Source text: as §1, §2, §3

In another experiment the target is T1, FLT3 D835Y (Homo sapiens, UniProt P36888, D835Y).
T1 construct: Recombinant proteins containing the FLT3 and FLT3 (D835Y) domains were purchased from Promega; purchased Promega V4514
T1 sequence (P36888 610-943 D835Y limits assumed): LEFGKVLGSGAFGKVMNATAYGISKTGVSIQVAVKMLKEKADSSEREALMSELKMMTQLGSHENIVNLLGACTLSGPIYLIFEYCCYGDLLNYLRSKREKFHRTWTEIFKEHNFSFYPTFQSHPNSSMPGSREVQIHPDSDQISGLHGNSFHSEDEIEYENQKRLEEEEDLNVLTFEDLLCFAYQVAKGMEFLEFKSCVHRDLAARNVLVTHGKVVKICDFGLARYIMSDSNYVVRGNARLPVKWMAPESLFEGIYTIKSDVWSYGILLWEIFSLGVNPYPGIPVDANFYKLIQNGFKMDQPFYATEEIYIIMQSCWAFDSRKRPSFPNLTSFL
Nature of the experiment: ADP-Glo kinase assay, FLT3 D835Y. The note with it: recombinant FLT3 (D835Y), 120 min room temperature, read-out: Enzyme activity (IC50, nM) FLT3 D835Y. The experiment is classed as biochemical. As for the experimental part:
FLT3 activity inhibition was measured by ADP-Glo kinase assay (Promega, cat #V9101). ADP-Glo kinase analysis method is an emission ADP detect method which measures kinase activity by quantification of ADP amount produced during kinase reaction and provides uniform high-throughput screening method.
(§4) Analysis performed in two steps. First, after kinase reaction, ADP-Glo™ reagent of equal volume was added to finish kinase reaction, and then the rest ATP was exhausted. Second, Kinase Detection Reagent was added to convert ADP to ATP and newly synthesized ATP was measured by luciferase/luciferin reaction at the same time. Generated light was measured by using luminometer. The measured luminescence amount can be applied to the ATP→ADP standard conversion curve to confirm the correlation with the ADP concentration.
Recombinant proteins containing the FLT3 and FLT3 (D835Y) domains were purchased from Promega (cat #V4064, cat #V4514), respectively. According to the manufacturer's instructions, optimal enzyme, ATP, and substrate concentration were established using the ADP-Glo™ Kinase Assay (Promega, USA). Kinase reaction buffer 5× (200 mM Tris-HCl, pH 7.5, 100 mM MgCl2, 0.5 mg/ml BSA) was diluted and used, and the diluted compound of the present invention (5×, 1 μl), FLT3 enzyme or FLT3/D835Y enzyme (2.5×, 2 μl) and substrate/ATP mixture (2.5×, 2 μl), were mixed sequentially and reacted at room temperature for 120 minutes. Then, ADP-Glo™ Reagent (5 μl) was added and reacted for 40 min at room temperature. Finally, after adding a reagent for detection (Kinase Detection Reagent, 10 μl), reacting at room temperature for 30 min, and then phosphorylation of substrate peptide was measured by measuring luciferase signal (Integration time 0.5-1 second) using SpectraMax ID5 reader (Molecular Devices LLC., San Jose, CA, USA). IC50 was calculated by nonlinear regression using Prism version 5.01 (GrapghPad).
(In general: In ADP-Glo the light output rises with the ADP produced.)

The target of the next experiment is T2, RET M918T (Homo sapiens, UniProt P07949, M918T).
T2 construct: Recombinant proteins containing RET wt, RET (M918T) and RET (V804L) domains were purchased from Promega; purchased Promega VA7274
T2 sequence (P07949 724-1016 M918T limits assumed): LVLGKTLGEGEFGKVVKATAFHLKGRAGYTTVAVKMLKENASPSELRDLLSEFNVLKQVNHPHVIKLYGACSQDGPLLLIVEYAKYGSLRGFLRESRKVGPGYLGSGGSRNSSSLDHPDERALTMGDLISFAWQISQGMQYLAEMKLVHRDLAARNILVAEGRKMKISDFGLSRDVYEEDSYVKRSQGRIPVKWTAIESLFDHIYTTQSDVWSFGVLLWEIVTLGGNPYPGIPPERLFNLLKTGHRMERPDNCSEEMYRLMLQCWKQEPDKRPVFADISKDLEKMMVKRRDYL
Description: ADP-Glo kinase assay, RET M918T. The experiment is classed as biochemical. The note with it: recombinant RET (M918T), 120 min room temperature, read-out: Enzyme activity (IC50, nM) RET M918T. The procedure: as §4
Recombinant proteins containing RET wt, RET (M918T) and RET (V804L) domains were purchased from Promega (cat #V8061, cat #VA7274, cat #V4473), respectively. According to the manufacturer's instructions, optimal enzyme, ATP, and substrate concentration were established using ADP-Glo™ Kinase Assay (Promega, USA). […] Then, ADP-Glo™ Reagent (5 μl) was added and reacted at room temperature for further 40 min. Lastly, Kinase Detection Reagent (10 μl) was added and reacted for 30 min more at room temperature, and then phosphorylation of substrate peptide was measured by measuring luciferase signal (Integration time 0.5-1 second) using SpectraMax ID5 reader (Molecular Devices LLC., San Jose, CA, USA). IC50 was calculated by nonlinear regression using Prism version 5.01 (GrapghPad).

In another experiment the test system is MV4-11. Nature of the experiment: Cell proliferation inhibition in AML cell line MV4-11 (Alamar Blue). The note with it: Homo sapiens, MV4-11, 72 hours, read-out: Cell proliferation inhibitory activity (GI50) MV4-11. In kind it is cell-based.
Source text: as §1, §2, §3

Like-named read-outs stand apart in the source and are kept apart here.

In general, IC50 refers to the concentration at which inhibition is half-maximal.

As for `O=C1Nc2ccc(Br)cc2/C1=C1/Nc2ccccc2/C1=N\OCCN1C[C@H]2C[C@@H]1CN2` [Example 13, (2Z,3E)-3-((2-((1R,4R)-2,5-diazabicyclo[2.2.1]heptan-2-yl)ethoxy)imino)-5′-bromo-[2,3′-biindolinylidene]-2′-one], the figures for the GI50 with Molm-13 (pM), in the experiment with Molm-14 (pM) and in the experiment with MV4-11 (pM) were 200 pM, 170 pM and 61 pM, respectively. The IC50 on FLT3 D835Y was 0.686 nM; at RET M918T, 1.03 nM.

`O=C1Nc2ccc(F)cc2/C1=C1/Nc2ccccc2/C1=N\OCCN1C[C@H]2C[C@@H]1CN2` [Example 9, (2Z,3E)-3-((2-((1R,4R)-2,5-diazabicyclo[2.2.1]heptan-2-yl)ethoxy)imino)-5′-fluoro-[2,3′-biindolinylidene]-2′-one]: the GI50 turned out to be 500 pM with Molm-13 (pM), 470 pM in the experiment on Molm-14 (pM) and 260 pM with MV4-11. Also, the IC50 on FLT3 D835Y amounted to 0.667 nM; on RET M918T, 1.02 nM.

As to `O=C1Nc2ccc(F)cc2/C1=C1/Nc2ccccc2/C1=N\OCCN1C[C@@H]2C[C@H]1CN2` [Example 10, (2Z,3E)-3-((2-((1S,4S)-2,5-diazabicyclo[2.2.1]heptan-2-yl)ethoxy)imino)-5′-fluoro-[2,3′-biindolinylidene]-2′-one], the figures for the GI50 in the experiment on Molm-13, with Molm-14 and in the experiment on MV4-11 were 1390 pM, 1860 pM and 685 pM, respectively. Further, the IC50 is 0.428 nM at FLT3 D835Y and 0.617 nM at RET M918T.

With `O=C1Nc2ccccc2/C1=C1/Nc2ccccc2/C1=N\OCCN1C[C@H]2C[C@@H]1CN2` [Example 4, (2Z,3E)-3-((2-((1R,4R)-2,5-diazabicyclo[2.2.1]heptan-2-yl)ethoxy)imino)-[2,3′-biindolinylidene]-2′-one], the figures for the GI50 in the experiment on Molm-13 (pM) and in the experiment with Molm-14 (pM) were 40 pM and 30 pM, respectively. Moreover, the concentration for half-maximal inhibition (IC50) at FLT3 D835Y came to 0.216 nM; at RET M918T it was 0.348 nM.

On to `O=C1Nc2ccccc2/C1=C1/Nc2ccccc2/C1=N\OCCN1C[C@@H]2C[C@H]1CN2` [Example 5, (2Z,3E)-3-((2-((1S,4S)-2,5-diazabicyclo[2.2.1]heptan-2-yl)ethoxy)imino)-[2,3′-biindolinylidene]-2′-one], for which the values for the GI50 with Molm-13, in the experiment on Molm-14 and with MV4-11 were 1780 pM, 1660 pM and 663 pM, respectively. Also, the IC50 on FLT3 D835Y was found to be 0.135 nM; at RET M918T it was 0.771 nM.

For the compound `O=C1Nc2ccc(Cl)cc2/C1=C1/Nc2ccccc2/C1=N\OCCN1C[C@H]2C[C@@H]1CN2` [Example 11, (2Z,3E)-3-((2-((1R,4R)-2,5-diazabicyclo[2.2.1]heptan-2-yl)ethoxy)imino)-5′-chloro-[2,3′-biindolinylidene]-2′-one], the values for the GI50 in the experiment with Molm-13 (pM), in the experiment with Molm-14 (pM) and in the experiment on MV4-11 (pM) were 162 pM, 100 pM and 40 pM, respectively. Also, the IC50 on FLT3 D835Y turned out to be 0.553 nM; on RET M918T it was 1.27 nM.

`O=C1Nc2ccccc2/C1=C1/Nc2ccccc2/C1=N\OCC(=O)N1CC2(CNC2)C1` [Example 15, (2Z,3E)-3-((2-oxo-2-(2,6-diazaspiro[3.3]heptan-2-yl)ethoxy)imino)-[2,3′-biindolinylidene]-2′-one]: the IC50 turned out to be 0.798 nM at FLT3 D835Y and 1.08 nM on RET M918T. For the same compound, the GI50 in the experiment with MV4-11 is 100000 pM.

With `O=C1Nc2ccc(F)cc2/C1=C1/Nc2ccccc2/C1=N\OCC(=O)N1CC2(CNC2)C1` [Example 18, (2Z,3E)-5′-fluoro-3-((2-oxo-2-(2,6-diazaspiro[3.3]heptan-2-yl)ethoxy)imino)-[2,3′-biindolinylidene]-2′-one], the IC50 came out at 0.306 nM at FLT3 D835Y and 0.921 nM on RET M918T. In addition, in the experiment on MV4-11, the GI50 came out at 100000 pM.

The values are drawn from patent publication US20240010635A1, “NOVEL INDIRUBIN DERIVATIVES HAVING HETEROBICYCLIC MOIETIES AND THE USE THEREOF” (priority 2022, published 2024).
